Source: PubChem BioAssay AID330 (DTP/NCI, 2004)
“And” between values parts separate entries of the source, which are not always exact repeats. Identical values can stand only once. Inconclusive results and toxic doses are left out.

Tested on: P388 leukemia ip, CD2F1 mice, survival T/C
Experiment: NCI In Vivo Anticancer Drug Screen. Data for tumor model P388 Leukemia (intraperitoneal) in CD2F1 (CDF1) mice
Settings: endpoint: median survival time, higher = longer survival
Method in brief: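 Mice carrying the transplanted tumor received test compound or vehicle. Survival was recorded in each group, and the value is the treated-group measurement divided by that of the vehicle-treated control group.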

[1] = dose: 60.0 mg/kg/injection, schedule: Q01DX005 (ip), vehicle: saline with Tween-80
[2] = dose: 120.0 mg/kg/injection, schedule: Q01DX005 (ip), vehicle: saline with Tween-80
[3] = dose: 12.5 mg/kg/injection, schedule: Q01DX005 (ip), vehicle: Klucel (hydroxypropylcellulose) (HPC)
[4] = dose: 25.0 mg/kg/injection, schedule: Q01DX005 (ip), vehicle: Klucel (hydroxypropylcellulose) (HPC)
[5] = dose: 50.0 mg/kg/injection, schedule: Q01DX005 (ip), vehicle: Klucel (hydroxypropylcellulose) (HPC)
[6] = dose: 240.0 mg/kg/injection, schedule: Q01DX005 (ip), vehicle: saline with Tween-80
[7] = dose: 100.0 mg/kg/injection, schedule: Q01DX005 (ip), vehicle: Klucel (hydroxypropylcellulose) (HPC)
[8] = dose: 100.0 mg/kg/injection, schedule: Q01DX001 (ip), vehicle: saline with Tween-80
[9] = dose: 200.0 mg/kg/injection, schedule: Q01DX001 (ip), vehicle: saline with Tween-80
[10] = dose: 100.0 mg/kg/injection, schedule: Q01DX009 (ip), vehicle: saline with Tween-80
[11] = dose: 200.0 mg/kg/injection, schedule: Q01DX009 (ip), vehicle: saline with Tween-80
[12] = dose: 50.0 mg/kg/injection, schedule: Q01DX009 (ip), vehicle: saline with Tween-80

CCOC(=O)C1=C(C(=O)c2ccccc2)C(c2ccc(Cl)cc2Cl)C(C(=O)c2ccccc2)=C(C(=O)OCC)N1
T/C [1]: 93 % of control
T/C [2]: 90 % of control

CC1C=CC(C)N(c2nnnn2C)N1c1nnnn1C (stereo not given)
T/C (dose: 100.0 mg/kg/injection, schedule: Q04DX003 (ip), vehicle: saline with Tween-80): 116 % of control
T/C (dose: 200.0 mg/kg/injection, schedule: Q04DX003 (ip), vehicle: saline with Tween-80): 106 % of control
T/C (dose: 400.0 mg/kg/injection, schedule: Q04DX003 (ip), vehicle: saline with Tween-80): 100 % of control

c1cc2cc3c(cc2[nH]1)OCO3
T/C (dose: 50.0 mg/kg/injection, schedule: Q01DX005 (ip), vehicle: Klucel + Tween-80): 95 % of control
T/C (dose: 100.0 mg/kg/injection, schedule: Q01DX005 (ip), vehicle: Klucel + Tween-80): 90 % of control
T/C (dose: 200.0 mg/kg/injection, schedule: Q01DX005 (ip), vehicle: Klucel + Tween-80): 95 % of control

[CH3][Sn]([CH3])([S]c1nc(O)cc(=O)[nH]1)[S]c1nc(O)cc(=O)[nH]1
T/C [3]: 105 % of control and 108 % of control
T/C [4]: 96 % of control
T/C [5]: 117 % of control and 88 % of control and 89 % of control

CCN(CC)CCCNc1nccc2c(C)c3[nH]c4ccncc4c3cc12
T/C (dose: 0.5 mg/kg/injection, schedule: Q04DX003 (ip), vehicle: other): 162 % of control
T/C (dose: 0.5 mg/kg/injection, schedule: Q04DX003 (iv), vehicle: other): 110 % of control
T/C (dose: 0.58 mg/kg/injection, schedule: Q04DX003 (ip), vehicle: other): 155 % of control
T/C (dose: 0.97 mg/kg/injection, schedule: Q04DX003 (ip), vehicle: other): 156 % of control
T/C (dose: 1.0 mg/kg/injection, schedule: Q04DX003 (iv), vehicle: other): 110 % of control
T/C (dose: 1.62 mg/kg/injection, schedule: Q04DX003 (ip), vehicle: other): 182 % of control
T/C (dose: 2.0 mg/kg/injection, schedule: Q04DX003 (iv), vehicle: other): 112 % of control
T/C (dose: 2.7 mg/kg/injection, schedule: Q04DX003 (ip), vehicle: other): 189 % of control
T/C (dose: 3.24 mg/kg/injection, schedule: Q04DX002 (ip), vehicle: other): 170 % of control and 175 % of control
T/C (dose: 3.89 mg/kg/injection, schedule: Q04DX002 (ip), vehicle: other): 179 % of control
T/C (dose: 4.0 mg/kg/injection, schedule: Q04DX003 (iv), vehicle: other): 122 % of control
T/C (dose: 4.5 mg/kg/injection, schedule: Q04DX003 (ip), vehicle: other): 196 % of control
T/C (dose: 5.4 mg/kg/injection, schedule: Q04DX002 (ip), vehicle: other): 168 % of control and 185 % of control
T/C (dose: 6.48 mg/kg/injection, schedule: Q04DX002 (ip), vehicle: other): 213 % of control
T/C (dose: 7.5 mg/kg/injection, schedule: Q04DX003 (ip), vehicle: other): 182 % of control
T/C (dose: 9.0 mg/kg/injection, schedule: Q04DX002 (ip), vehicle: other): 200 % of control and 207 % of control
T/C (dose: 10.8 mg/kg/injection, schedule: Q04DX002 (ip), vehicle: other): 194 % of control
T/C (dose: 15.0 mg/kg/injection, schedule: Q04DX002 (ip), vehicle: other): 200 % of control and 217 % of control
T/C (dose: 18.0 mg/kg/injection, schedule: Q04DX002 (ip), vehicle: other): 215 % of control

CC1(C)Nc2ccccc2C(c2ccccc2)=NC1=O
T/C (dose: 60.0 mg/kg/injection, schedule: Q01DX005 (ip), vehicle: Klucel (hydroxypropylcellulose) (HPC)): 101 % of control and 102 % of control
T/C (dose: 120.0 mg/kg/injection, schedule: Q01DX005 (ip), vehicle: Klucel (hydroxypropylcellulose) (HPC)): 105 % of control and 98 % of control
T/C (dose: 240.0 mg/kg/injection, schedule: Q01DX005 (ip), vehicle: Klucel (hydroxypropylcellulose) (HPC)): 104 % of control and 91 % of control

CC1(C)S/C(=C\c2ccccc2)c2nc3ccccc3c(=O)n21
T/C [1]: 97 % of control
T/C [2]: 91 % of control
T/C [6]: 89 % of control

c1ccc2c(Cc3csc4ccccc34)csc2c1
T/C (dose: 50.0 mg/kg/injection, schedule: Q01DX005 (ip), vehicle: distilled water + Tween-80 + alcohol): 106 % of control
T/C (dose: 100.0 mg/kg/injection, schedule: Q01DX005 (ip), vehicle: distilled water + Tween-80 + alcohol): 115 % of control
T/C (dose: 200.0 mg/kg/injection, schedule: Q01DX005 (ip), vehicle: distilled water + Tween-80 + alcohol): 115 % of control

Cc1cc(COCCN(C)C)on1
T/C [1]: 97 % of control
T/C [2]: 104 % of control

COc1ccc2c(O)c(S(=O)(=O)c3ccc(C)cc3)c(=O)oc2c1
T/C [1]: 92 % of control
T/C [2]: 104 % of control
T/C [6]: 115 % of control

CC(=O)NNC(=O)CCCCCCC(=O)NNC(C)=O
T/C [5]: 98 % of control
T/C [7]: 98 % of control

Brc1ccc2c3c(ccc2c1)OCCOCCOCCOCCOCCOc1ccc2cc(Br)ccc2c1-3
T/C [8]: 104 % of control
T/C [9]: 107 % of control
T/C (dose: 400.0 mg/kg/injection, schedule: Q01DX001 (ip), vehicle: saline with Tween-80): 104 % of control

O=C1CSCc2nc3ccccc3n21
T/C (dose: 100.0 mg/kg/injection, schedule: Q01DX001 (ip), vehicle: saline): 95 % of control
T/C (dose: 100.0 mg/kg/injection, schedule: Q01DX009 (ip), vehicle: saline): 103 % of control
T/C (dose: 200.0 mg/kg/injection, schedule: Q01DX001 (ip), vehicle: saline): 104 % of control
T/C (dose: 200.0 mg/kg/injection, schedule: Q01DX009 (ip), vehicle: saline): 103 % of control
T/C (dose: 400.0 mg/kg/injection, schedule: Q01DX001 (ip), vehicle: saline): 104 % of control

O=C1OCCOCCOCCOC(=O)c2ccccc2SSc2ccccc21
T/C [8]: 90 % of control
T/C [9]: 97 % of control

COc1nc2c(=O)[nH]c(N)nc2n1C1OC(CO)C(O)C1O (stereo not given)
T/C [10]: 98 % of control
T/C [11]: 113 % of control
T/C (dose: 400.0 mg/kg/injection, schedule: Q01DX009 (ip), vehicle: saline with Tween-80): 116 % of control

O=C(NC1CC(c2ccccc2)(c2ccccc2)OC1=O)c1ccccc1 (stereo not given)
T/C [12]: 100 % of control
T/C [10]: 86 % of control

Cc1cc2nc(CC(=O)c3ccccc3)c(CC(=O)c3ccccc3)nc2cc1C
T/C (dose: 7.5 mg/kg/injection, schedule: Q01DX005 (ip), vehicle: saline with Tween-80): 98 % of control
T/C (dose: 15.0 mg/kg/injection, schedule: Q01DX005 (ip), vehicle: saline with Tween-80): 95 % of control

CN=c1nc2n3c(cccc3n1)NC(C)=N2
T/C [1]: 100 % of control
T/C [2]: 92 % of control
T/C [6]: 99 % of control

COC(=O)C1=CO[C@@H](OC2OC(CO)C(O)C(O)C2O)[C@@H]2[C@@H](C)[C@@H](O)C[C@H]12 (stereo not given in full)
T/C (dose: 1.13 mg/kg/injection, schedule: Q01DX005 (ip), vehicle: water): 100 % of control
T/C (dose: 2.25 mg/kg/injection, schedule: Q01DX005 (ip), vehicle: water): 99 % of control
T/C (dose: 4.5 mg/kg/injection, schedule: Q01DX005 (ip), vehicle: water): 93 % of control
T/C (dose: 9.0 mg/kg/injection, schedule: Q01DX005 (ip), vehicle: water): 95 % of control

CCN(CC)CCOC(=O)Cc1cccc2c(=O)cc(-c3ccc(OC)cc3)oc12
T/C [3]: 113 % of control
T/C [4]: 113 % of control
T/C [5]: 98 % of control
T/C [7]: 121 % of control

CCN(CC)C(C)C(=O)c1ccc2cc(Br)c3ccccc3c2c1 (stereo not given)
T/C (dose: 50.0 mg/kg/injection, schedule: Q01DX005 (ip), vehicle: saline): 109 % of control
T/C (dose: 100.0 mg/kg/injection, schedule: Q01DX005 (ip), vehicle: saline): 113 % of control

COc1cc(C(c2cc3c(cc2O)OCO3)N2CCN(C(c3cc(OC)c(O)c(OC)c3)c3cc4c(cc3O)OCO4)CC2)cc(OC)c1O (stereo not given)
T/C [1]: 91 % of control
T/C [2]: 89 % of control
T/C [6]: 91 % of control

O=C1Nc2ccc(Br)cc2/C1=C/C(=O)c1ccccc1
T/C (dose: 50.0 mg/kg/injection, schedule: Q01DX009 (ip), vehicle: Klucel (hydroxypropylcellulose) (HPC)): 111 % of control
T/C (dose: 100.0 mg/kg/injection, schedule: Q01DX009 (ip), vehicle: Klucel (hydroxypropylcellulose) (HPC)): 101 % of control
T/C (dose: 200.0 mg/kg/injection, schedule: Q01DX009 (ip), vehicle: Klucel (hydroxypropylcellulose) (HPC)): 103 % of control

O=C(CNC(=O)c1ccccc1)OC(C(=O)O)c1ccc(F)cc1 (stereo not given)
T/C [12]: 100 % of control
T/C [10]: 102 % of control
T/C [11]: 96 % of control
